According to ChEMBL document CHEMBL1240297 (Cancer Res, 2005):
Calls of active or inactive are those of the source. No cut-off for these calls is given here. Where a SMILES comes first, the peptide text is derived from it. The star is where a group is joined. Cbz = O=C(OCc1ccccc1)*

Key:
[1] = system: LP-1; test: Induction of apoptosis in human LP-1 cells assessed as reduction of Mcl-1 protein level at 300 nM after 16 hrs by immunoblotting; format: functional, cell-based
[2] = system: LP-1; test: Induction of apoptosis in human LP-1 cells assessed as increase in level of cleaved PARP at 300 nM after 16 hrs by immunoblotting; format: functional, cell-based
[3] = system: LP-1; test: Cytotoxicity against human LP-1 cells after 72 hrs by alamar blue assay; format: functional, cell-based; conditions: LP-1, 72 h
[4] = system: NCI-H929; test: Induction of apoptosis in human NCI-H929 cells assessed as dephosphorylation of pRb at S249/T252 at 60 uM after 1.5 hrs by immunoblotting; format: functional, cell-based
[5] = system: NCI-H929; test: Induction of apoptosis in human NCI-H929 cells assessed as […] slow migrating hyperphosphorylated RNA polymerase 2O form at 60 uM after 1.5 hrs by immunoblotting; format: functional, cell-based
[6] = system: NCI-H929; test: Induction of apoptosis in human NCI-H929 cells assessed as fast migrating hypophosphorylated RNA polymerase 2A form at 60 uM after 1.5 hrs by immunoblotting; format: functional, cell-based
[7] = system: NCI-H929; test: Induction of apoptosis in human NCI-H929 cells assessed as reduction of Mcl-1 protein level at 60 uM after 3 hrs by immunoblotting; format: functional, cell-based
[8] = system: NCI-H929; test: Induction of apoptosis in human NCI-H929 cells assessed as reduction of total RNA polymerase 2 level at 60 uM after 1.5 hrs by immunoblotting; format: functional, cell-based
[9] = Cytotoxicity against human RPM18226 cells after 72 hrs by alamar blue assay; format: functional, cell-based; conditions: RPMI-8226, 72 h
[10] = system: U-266; test: Cytotoxicity against human U266 cells after 72 hrs by alamar blue assay; format: functional, cell-based; conditions: U-266, 72 h
[11] = system: NCI-H929; test: Induction of apoptosis in human NCI-H929 cells assessed as reduction of RNA polymerase 2 phosphoserine 5 level at 60 uM after 1.5 hrs by immunoblotting; format: functional, cell-based
[12] = system: NCI-H929; test: Induction of apoptosis in human NCI-H929 cells assessed as reduction of RNA polymerase 2 phosphoserine 2 level at 60 uM after 1.5 hrs by immunoblotting; format: functional, cell-based
[13] = system: OPM-2; test: Cytotoxicity against human OPM2 cells after 72 hrs by alamar blue assay; format: functional, cell-based; conditions: OPM-2, 72 h
[14] = system: NCI-H929; test: Induction of apoptosis in human NCI-H929 cells assessed as changes in Bcl-2 protein level at 60 uM after 3 hrs by immunoblotting; format: functional, cell-based
[15] = system: NCI-H929; test: Induction of apoptosis in human NCI-H929 cells assessed as dephosphorylation of pRb at S249/T252 at 60 uM after 8 hrs by immunoblotting; format: functional, cell-based
[16] = system: NCI-H929; test: Induction of apoptosis in human NCI-H929 cells assessed as changes in XIAP protein level at 60 uM after 3 hrs by immunoblotting; format: functional, cell-based
[17] = system: NCI-H929; test: Induction of apoptosis in human NCI-H929 cells assessed as changes in survivin protein level at 60 uM after 3 hrs by immunoblotting; format: functional, cell-based
[18] = Selectivity ratio of IC50 for CDK9/cyclin T to IC50 for CDK2/cyclin E
[19] = system: NCI-H929; test: Induction of apoptosis in human NCI-H929 cells assessed as reduction of Hdm2 level at 60 uM after 1.5 hrs by immunoblotting; format: functional, cell-based
[20] = system: NCI-H929; test: Induction of apoptosis in human NCI-H929 cells assessed as increase of p53 accumulation at 60 uM after 1.5 hrs by immunoblotting; format: functional, cell-based
[21] = Selectivity ratio of IC50 for CDK9/cyclin T to IC50 for CDK7/cyclin H
[22] = system: NCI-H929; test: Induction of apoptosis in human NCI-H929 cells assessed as increase in level of cleaved PARP at 60 uM after 5 hrs by immunoblotting; format: functional, cell-based
[23] = Cytotoxicity against human NCI-H929 cells after 72 hrs by alamar blue assay; format: functional, cell-based; conditions: NCI-H929, 72 h
[24] = Inhibition of CDK9/cyclin T
[25] = system: NCI-H929; test: Induction of apoptosis in human NCI-H929 cells assessed as reduction of RNA polymerase 2 phosphoserine 5 level at 30 uM after 1.5 hrs by immunoblotting; format: functional, cell-based
[26] = system: RPMI-8226; test: Induction of apoptosis in human RPM18226 cells assessed as reduction of RNA polymerase 2 phosphoserine 2 level at 30 uM after 1.5 hrs by immunoblotting; format: functional, cell-based
[27] = system: RPMI-8226; test: Induction of apoptosis in human RPM18226 cells assessed as reduction of Mcl-1 protein level at 30 uM after 3 hrs by immunoblotting; format: functional, cell-based
[28] = system: LP-1; test: Induction of apoptosis in human LP-1 cells assessed as reduction of Mcl-1 protein level at 30 uM after 3 hrs by immunoblotting; format: functional, cell-based
[29] = system: LP-1; test: Induction of apoptosis in human LP-1 cells assessed as reduction of RNA polymerase 2 phosphoserine 2 level at 30 uM after 1.5 hrs by immunoblotting; format: functional, cell-based
[30] = system: RPMI-8226; test: Induction of apoptosis in human RPM18226 cells at 30 uM after 24 hrs using TUNEL staining by flow cytometry; format: functional
[31] = system: NCI-H929; test: Induction of apoptosis in human NCI-H929 cells assessed as changes in Bcl-2 protein level at 30 uM after 3 hrs by immunoblotting; format: functional, cell-based
[32] = system: LP-1; test: Induction of apoptosis in human LP-1 cells at 30 uM after 3 hrs using TUNEL staining by flow cytometry; format: functional, cell-based
[33] = system: NCI-H929; test: Induction of apoptosis in human NCI-H929 cells assessed as […] slow migrating hyperphosphorylated RNA polymerase 2O form at 30 uM after 1.5 hrs by immunoblotting; format: functional, cell-based
[34] = system: NCI-H929; test: Induction of apoptosis in human NCI-H929 cells at 30 uM after 3 hrs using TUNEL staining by flow cytometry; format: functional, cell-based
[35] = system: RPMI-8226; test: Induction of apoptosis in human RPM18226 cells at 30 uM after 3 hrs using TUNEL staining by flow cytometry; format: functional, cell-based
[36] = system: NCI-H929; test: Induction of apoptosis in human NCI-H929 cells assessed as increase of p53 accumulation at 30 uM after 1.5 hrs by immunoblotting; format: functional, cell-based
[37] = system: NCI-H929; test: Induction of apoptosis in human NCI-H929 cells assessed as reduction of RNA polymerase 2 phosphoserine 2 level at 30 uM after 1.5 hrs by immunoblotting; format: functional, cell-based
[38] = system: NCI-H929; test: Induction of apoptosis in human NCI-H929 cells assessed as dephosphorylation of pRb at S249/T252 at 30 uM after 1.5 hrs by immunoblotting; format: functional, cell-based
[39] = system: LP-1; test: Induction of apoptosis in human LP-1 cells at 30 uM after 24 hrs using TUNEL staining by flow cytometry; format: functional
[40] = system: LP-1; test: Cytotoxicity against human LP-1 cells assessed as reduction of cell viability at 20 to 30 uM treated for 8 hrs followed by washout measured after total 72 hrs growth period alamar blue assay relative to control; format: functional
[41] = system: NCI-H929; test: Induction of apoptosis in human NCI-H929 cells assessed as changes in XIAP protein level at 30 uM after 3 hrs by immunoblotting; format: functional, cell-based
[42] = system: NCI-H929; test: Induction of apoptosis in human NCI-H929 cells assessed as changes in survivin protein level at 30 uM after 3 hrs by immunoblotting; format: functional, cell-based
[43] = system: NCI-H929; test: Induction of apoptosis in human NCI-H929 cells assessed as fast migrating hypophosphorylated RNA polymerase 2A form at 30 uM after 1.5 hrs by immunoblotting; format: functional, cell-based
[44] = system: NCI-H929; test: Induction of apoptosis in human NCI-H929 cells at 30 uM after 24 hrs using TUNEL staining by flow cytometry; format: functional
[45] = system: LP-1; test: Cytotoxicity against human LP-1 cells assessed as reduction of cell viability at 20 to 30 uM treated for 24 hrs followed by washout measured after total 72 hrs growth period alamar blue assay relative to control; format: functional, cell-based
[46] = system: NCI-H929; test: Induction of apoptosis in human NCI-H929 cells assessed as reduction of Hdm2 level at 30 uM after 1.5 hrs by immunoblotting; format: functional, cell-based
[47] = system: NCI-H929; test: Induction of apoptosis in human NCI-H929 cells assessed as reduction of total RNA polymerase 2 level at 30 uM after 1.5 hrs by immunoblotting; format: functional, cell-based
[48] = system: NCI-H929; test: Induction of apoptosis in human NCI-H929 cells assessed as reduction of Mcl-1 protein level at 30 uM after 3 hrs by immunoblotting; format: functional, cell-based
[49] = system: NCI-H929; test: Cytotoxicity against human NCI-H929 cells assessed as reduction of cell viability at 20 to 30 uM treated for 16 hrs followed by washout measured after total 72 hrs growth period alamar blue assay relative to control; format: functional, cell-based
[50] = system: NCI-H929; test: Induction of apoptosis in human NCI-H929 cells assessed as effect on total pRb level at 30 uM after 1.5 hrs by immunoblotting; format: functional, cell-based

SMILES: CC(C)C[C@@H](C=O)NC(=O)[C@H](CC(C)C)NC(=O)[C@H](CC(C)C)NC(=O)OCc1ccccc1 (Cbz-Leu-Leu-Leu-aldehyde)
- Activity [1]: inactive
- Activity [2]: Active

SMILES: OC[C@H]1O[C@@H](n2cnc3cc(Cl)c(Cl)cc32)[C@H](O)[C@@H]1O [DICHLORORIBOBENZIMIDAZOLE]
- IC50 [3]: 29.8 µM
- Activity [4]: inactive
- Activity [5]: Active
- Activity [6]: Active
- Activity [7]: Active
- Activity [8]: inactive
- IC50 [9]: 46.8 µM
- IC50 [10]: 41 µM
- Activity [11]: Active
- Activity [12]: Active
- IC50 [13]: 29.5 µM
- Activity [14]: Active
- Activity [15]: Active
- Activity [16]: Active
- Activity [17]: Active
- Ratio IC50 [18]: 25
- Activity [19]: Active
- Activity [20]: Active
- Ratio IC50 [21]: 25
- Activity [22]: Active
- IC50 [23]: 20.1 µM

SMILES: CC[C@H](CO)Nc1nc(NCc2ccccc2)c2ncn(C(C)C)c2n1 [SELICICLIB]
- IC50 [3]: 12.7 µM
- IC50 [24]: 0.81 µM
- Activity [25]: Active
- Activity [26]: Active
- Activity [27]: Active
- IC50 [9]: 19.5 µM
- Activity [28]: Active
- IC50 [10]: 17.9 µM
- Activity [29]: Active
- Activity [30]: >=60%
- Activity [31]: Active
- Activity [32]: Active
- Activity [33]: Active
- IC50 [13]: 18.5 µM
- Activity [34]: Active
- Activity [35]: Active
- Activity [36]: Active
- Activity [37]: Active
- Activity [38]: Active
- Activity [39]: >=60%
- Activity [40]: 50%
- Activity [41]: Active
- Activity [42]: Active
- Activity [43]: inactive
- Activity [44]: >=60%
- Activity [45]: Active
- Activity [46]: Active
- Activity [47]: inactive
- Activity [48]: Active
- Activity [49]: Active
- Activity [50]: inactive
